# Measurements as given in US7964614B2, “Systemic inflammatory markers as diagnostic tools in the prevention of atherosclerotic diseases and as tools to aid in the selection of agents to be used for the prevention and treatment of atherosclerotic disease” (The Brigham and Women's Hospital, Inc., priority 1997, dated 2011).
# What was measured:
# [1] = tested on: apparently healthy men (US male physicians); test: Physicians' Health Study: randomized, double-blind, placebo controlled trial of aspirin in primary prevention; risk of first myocardial infarction, stratified by baseline C-reactive protein quartile; type: in vivo, human; settings: 325 mg aspirin on alternate days vs placebo, events prior to Jan. 25, 1988
# Procedure: The Physicians' Health Study is a randomized, double-blind, placebo controlled, 2×2 factorial trial of aspirin and beta-carotene in the primary prevention of cardiovascular disease and cancer. A total of 22,071 US male physicians aged 40 to 84 years in 1982 with no history of myocardial infarction, stroke, transient ischemic attack, or cancer were assigned to one of four treatment groups: 325 mg aspirin on alternate days (Bufferin, provided by Bristol-Myers), 50 mg of beta-carotene on alternate days (Lurotin, provided by BASF Corporation), both, or neither. The aspirin component of the PHS was terminated early on Jan. 25, 1988 primarily due to a statistically extreme 44 percent reduction in risk of first infarction in the aspirin group.^1 The beta-carotene component continued to scheduled termination on Dec. 31, 1995.^2 Hospital records (and for fatal events, death certificates and necropsy reports) were requested for all reported cases of myocardial infarction, stroke, and venous thrombosis. Records were reviewed by a committee of physicians using standardized criteria to confirm or refute reported events. Endpoints reviewers were blinded to treatment assignment. Reported myocardial infarction was confirmed if the event met World Health Organization criteria of symptoms plus either elevated enzymes or characteristic electrocardiographic changes. Silent myocardial infarctions were not included since they could not be dated accurately. Deaths due to coronary disease were confirmed based on autopsy reports, symptoms, circumstances of death, and prior history of coronary disease. Reported stroke was confirmed based on medical records showing neurological deficit of sudden or rapid onset persisting for more than 24 hours or until death. Strokes were classified as ischemic or hemorrhagic. Computed tomography was available for more than 95 percent of confirmed strokes. Reported deep venous thrombosis was confirmed by documentation of a positive venography study or a positive ultrasound study; deep venous thrombosis documented only by impedance plethysmography or Doppler examination without ultrasound were not confirmed. […] Using these methods, we evaluated 543 cases and 543 controls in this prospective nested case-control design. Means or proportions for baseline risk factors were calculated for cases and controls. […] Because C-reactive protein levels are skewed, median levels were computed and the significance of any differences in median values between cases and controls assessed using Wilcoxon's Rank Sum Test. […] Similar models were employed to adjust for measured baseline levels of total and HDL cholesterol, triglyceride, lipoprotein(a), tPA antigen, fibrinogen, D-dimer, and homocysteine. […]
# [2] = tested on: apparently healthy men (US male physicians); settings: whole trial population, 325 mg aspirin on alternate days vs placebo (reference 1); cited from earlier work
smiles,measurement,setting,value
CC(=O)Oc1ccccc1C(=O)O [aspirin],reduction in risk of myocardial infarction associated with aspirin use,[1]; first (lowest) quartile of baseline C-reactive protein,13.9%
same,reduction in risk of myocardial infarction associated with aspirin use,[1]; fourth (highest) quartile of baseline C-reactive protein,55.7%
same,reduction in risk of myocardial infarction associated with aspirin use,[1]; second quartile of baseline C-reactive protein,33.4%
same,reduction in risk of myocardial infarction associated with aspirin use,[1]; third quartile of baseline C-reactive protein,46.3%
same,reduction in risk of first infarction in the aspirin group,[2],44%
